Test results: patent US20080015194A1, “METHODS AND COMPOSITIONS OF TARGETED DRUG DEVELOPMENT” (priority 2006, published 2008)
Like-named read-outs stand apart in the source and are kept apart here.

Assays:
EGFR = biological target: T1, EGFR (Rattus norvegicus, UniProt G3V6K6); test: Inhibition of [125I]EGF binding to EGFR, radioligand filtration assay (NovaScreen); conditions: rat liver membranes
T1 construct: Receptor source was rat liver membranes; tissue NovaScreen BioSciences; host or cells: rat liver membranes
T1 sequence (G3V6K6 25-1209): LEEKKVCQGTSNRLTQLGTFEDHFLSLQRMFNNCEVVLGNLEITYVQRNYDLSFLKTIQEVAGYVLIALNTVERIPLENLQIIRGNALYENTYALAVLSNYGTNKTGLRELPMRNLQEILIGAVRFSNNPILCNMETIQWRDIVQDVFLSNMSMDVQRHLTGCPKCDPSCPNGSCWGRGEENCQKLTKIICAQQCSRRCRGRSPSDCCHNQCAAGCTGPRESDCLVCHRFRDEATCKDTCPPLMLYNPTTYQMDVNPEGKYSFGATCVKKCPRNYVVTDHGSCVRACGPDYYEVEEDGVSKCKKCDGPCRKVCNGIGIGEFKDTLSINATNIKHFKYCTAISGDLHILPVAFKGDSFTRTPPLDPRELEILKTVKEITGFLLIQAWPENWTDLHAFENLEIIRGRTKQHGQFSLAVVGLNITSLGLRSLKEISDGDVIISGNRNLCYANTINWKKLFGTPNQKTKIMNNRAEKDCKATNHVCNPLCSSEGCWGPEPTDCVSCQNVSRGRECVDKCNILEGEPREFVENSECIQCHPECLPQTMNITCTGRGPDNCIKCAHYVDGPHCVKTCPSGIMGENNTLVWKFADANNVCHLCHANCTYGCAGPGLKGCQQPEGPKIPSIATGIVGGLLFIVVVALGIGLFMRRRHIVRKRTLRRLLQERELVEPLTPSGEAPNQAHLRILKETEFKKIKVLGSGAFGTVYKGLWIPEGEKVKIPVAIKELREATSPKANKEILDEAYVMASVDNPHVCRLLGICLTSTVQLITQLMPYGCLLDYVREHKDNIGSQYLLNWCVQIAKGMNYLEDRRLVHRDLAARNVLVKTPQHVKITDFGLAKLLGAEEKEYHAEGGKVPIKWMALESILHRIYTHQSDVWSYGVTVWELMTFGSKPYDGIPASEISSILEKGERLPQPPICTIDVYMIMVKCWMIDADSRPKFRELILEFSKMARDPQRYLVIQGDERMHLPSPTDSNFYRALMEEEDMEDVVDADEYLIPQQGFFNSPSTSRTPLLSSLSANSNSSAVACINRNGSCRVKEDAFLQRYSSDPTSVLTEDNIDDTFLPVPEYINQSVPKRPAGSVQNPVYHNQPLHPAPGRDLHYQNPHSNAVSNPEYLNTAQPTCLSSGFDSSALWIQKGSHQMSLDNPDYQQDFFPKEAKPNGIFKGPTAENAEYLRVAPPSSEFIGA
Protocol: Identified compounds, representing various pharmacaphore models, were tested for ability to inhibit EGFR at 25 μM.
AD4-compounds were identified using pharmacophore models (see Example 4) and then were docked with the binding site of EGFR (SEQ ID NO: 1) that is recognized by defined CDRs of cetuximab. The inhibition of epidermal growth factor binding by AD4-compounds was then determined (NovaScreen BioSciences, Hanover, Md.). Inhibition of EGF binding was determined at 25 μM concentration.
Receptor source was rat liver membranes. The radioligand was [^125I]EGF ([…]) at a final ligand concentration of 0.36 nM. A non-specific determinant was used as EGF—[100 nM]. The reference compound and positive control was EGF. Reactions were carried out in 10 mM HEPES (pH 7.4) containing 0.1% BSA at 25 °C for 60 minutes. The reaction was terminated by rapid vacuum filtration onto glass fiber filters. Radioactivity trapped onto the filters was determined and compared to control values to ascertain any interactions of test compounds with the EGF binding site. The EGF inhibitor assays were modified from, for example, Mukku (1984) J. Biol. Chem. 259, 6543-6546; Duh et al. (1990) World J. Surgery 14, 410-418; Lokeshwar et al. (1989) J. Biol. Chem. 264(32), 19318-19326.

[1] = biological target: EGF receptor of rat liver membranes (rat); test: radioligand binding of [125I]EGF to rat liver membranes, filtration (NovaScreen)
[2] = 25 μM compound, [125I]EGF 0.36 nM, read-out: inhibition of binding of EGF to EGFR
[3] = inhibition of [125I]EGF binding at 25 μM, read-out: EGFR INHIBITION
[4] = 25 μM compound, [125I]EGF 0.36 nM

| Molecule | inhibition at 25 µM (EGFR; [3]) [%] | further results |
| --- | --- | --- |
| CC1=C(C(=O)Nc2cccc(C)c2)C(c2ccc(O)cc2)NC(=O)N1 (stereo not shown) [AD4-1010, 4-(4-hydroxyphenyl)-6-methyl-N-(3-methylphenyl)-2-oxo-1,2,3,4-tetrahydro-5pyrimidinecarboxamide] | 39.4 | inhibition at 25 µM (EGFR; [2]): 39.4% |
| CCOc1ccc(/C(C)=N/N=C2\NC(=O)C(CC(=O)O)S2)cc1 (stereo not shown) [AD4-1016] | 37.8 |  |
| O=C(N/N=C/c1cc(Cl)ccc1O)c1ccc(O)cc1 [AD4-1017] | 35 |  |
| Oc1ccc(/C=N/N=C/c2ccc(O)cc2O)c(O)c1 [AD4-1018] | 36.2 |  |
| O=C(O)Cn1nnc(-c2ccc(OCc3ccccc3)cc2)n1 [AD4-1020, {5-[4-(benzyloxy)phenyl]-2H-tetrazol-2-yl}acetic acid] | 47.8 | inhibition of binding of EGF to EGFR (EGFR; [4]): 48%; inhibition at 25 µM (EGFR; [2]): 47.8% |
| CC(Oc1ccc(C(=O)NCCc2ccccc2)cc1)C(=O)O (stereo not shown) [AD4-1021] | 43.4 | inhibition at 25 µM (EGFR; [2]): 43% |
| Cc1cc(C)c(OCC(=O)Nc2cc(O)ccc2C(=O)O)cc1C [AD4-1022] | 38.6 | inhibition at 25 µM (EGFR; [2]): 39% |
| O=C(O)C[C@H](NCc1cccnc1)C(=O)Nc1ccc(Cl)cc1 [AD4-1025, N^1-(4-chlorophenyl)-N^2-(3-pyridinylmethyl)-alpha-asparagine] | 75.7 | inhibition of binding of EGF to EGFR (EGFR; [4]): 76%; inhibition at 25 µM (EGFR; [2]): 75.7% |
| O=C(O)CCc1ccc(-c2ccc(Cl)cc2)n1CCC(=O)O [AD4-1027] | 38.6 | inhibition at 25 µM (EGFR; [2]): 39% |
| COc1cccc(OCC(=O)Nc2ccccc2C(=O)O)c1 [AD4-1030] | 37.7 | inhibition at 25 µM (EGFR; [2]): 38% |
| CN(C1=NC(=O)C(CC(=O)O)S1)c1ccc(O)cc1 (stereo not shown) [AD4-1038, {2-[(4-Hydroxy-phenyl)-methyl-amino]-4-oxo-4,5-dihydro-thiazol-5-yl}-acetic acid] | 70.9 | inhibition at 25 µM (EGFR; [2]): 70.7% |
| O=C(CC(NCC1CCCO1)C(=O)O)Nc1cccc(Cl)c1 (stereo not shown) [AD4-1039] | 31.7 | inhibition at 25 µM (EGFR; [2]): 32% |
| CCCC(NC(=O)CCc1c(C)c2ccc(O)cc2oc1=O)C(=O)O (stereo not shown) [AD4-1047] | 32.7 |  |
| COc1cc(/C=N/NC(=O)c2ccc(O)cc2O)ccc1O [AD4-1057] | 30.1 |  |
| Cn1c(=O)c2c(nc(SCCCO)n2Cc2ccccc2)n(C)c1=O [AD4-1060] | 30.2 |  |
| NC(=O)C1CCN(C2CC(=O)N(c3ccc(C(=O)O)cc3)C2=O)CC1 (stereo not shown) [AD4-1108] | 33.1 |  |
| O=C(O)CCCN1C(=O)/C(=C/c2cccc(O)c2)SC1=S [AD4-1109] | 36.5 |  |
| CCOc1cc(C=C2C(=O)NC(=O)NC2=O)ccc1CC(=O)O [AD4-1121] | 35 |  |
| O=C(NC(=S)Nc1ccc(O)c(C(=O)O)c1)c1ccccc1 [AD4-1123] | 34.1 |  |
| O=C1Nc2ccccc2C1(O)C/C(=N/O)c1ccc2c(c1)OCCO2 (stereo not shown) [AD4-1124] | 33.1 |  |
| Cc1ccc(OCCn2c(SCCO)nc3c(N)ncnc32)cc1 [AD4-1128] | 38 |  |

| Molecule | inhibition at 25 µM (EGFR; [3]) [%] | further results |
| --- | --- | --- |
| Cc1ccc(OCC(=O)Nc2ccc(O)cc2C(=O)O)c(C)c1 [AD4-1132, 2-{[(2,4-dimethylphenoxy)acetyl]amino}-5-hydroxybenzoic acid] | 59.6 | inhibition at 25 µM (EGFR; [2]): 59.6% |
| Oc1ccc(-c2csc(NCc3ccco3)n2)c(O)c1 [AD4-1133] | 37.3 |  |
| Cc1ccc(C(=O)Nc2ccc(C(=O)NCCCC(=O)O)cc2)o1 [AD4-1139] | 39 |  |
| O=C(CC1SC(Nc2ccc(O)cc2)=NC1=O)Nc1ccc(Br)cc1 (stereo not shown) [AD4-1140] | 36.5 |  |
| O=C(O)c1ccccc1SC1CC(=O)N(c2ccc(O)cc2)C1=O (stereo not shown) [AD4-1141] | 46.7 |  |
| COC(=O)c1cc(NC(=O)CSc2nc(C)cc(=O)[nH]2)cc(C(=O)OC)c1 [AD4-1147] | 43.4 |  |
| NC(=O)CCC(Nc1ncnc2ccccc12)C(=O)O (stereo not shown) [AD4-1148] | 43.2 |  |
| O=C(O)CC(NCc1ccco1)C(=O)Nc1ccc2ccccc2c1 (stereo not shown) [AD4-1149] | 33.6 |  |
| O=C(O)COc1ccc(C(=O)NCc2ccccc2)cc1 [AD4-1150] | 43.1 |  |
| CN(Cc1ccccc1)S(=O)(=O)c1ccc(O)c(C(=O)O)c1 [AD4-1153] | 34 |  |
| Cc1cccc(NC(=O)C(CC(=O)O)NCc2ccccc2)c1 (stereo not shown) [AD4-1155] | 30.1 |  |
| O=C(O)Cn1nnc(-c2ccc(OCc3cccc(C(F)(F)F)c3)cc2)n1 [AD4-1164] | 33.3 |  |
| Cc1ccc(Cl)cc1NC(=O)CC(C(=O)O)N1CCNCC1 (stereo not shown) [AD4-1165] | 47.2 |  |
| Cc1cccc(NC(=O)CC(NCCN2CCOCC2)C(=O)O)c1 (stereo not shown) [AD4-1166] | 31.2 |  |
| CCN(CC)c1ccc(NC(=O)C(CC(=O)O)NCc2ccccc2)cc1 (stereo not shown) [AD4-1167] | 30.6 |  |
| O=C(O)COc1ccc(-c2nnn(CC(=O)O)n2)cc1 [AD4-1169] | 31.4 |  |
| O=C(O)CC(NCc1ccccc1)C(=O)Nc1ccc(Cl)cc1 (stereo not shown) [AD4-1171] | 47.2 |  |
| O=C(O)Cn1nnc(-c2ccc(OCc3c(F)cccc3Cl)cc2)n1 [AD4-1175] | 35.1 |  |
| CCNc1nc(N)nc(Oc2ccc(OCc3ccccc3)nn2)n1 [AD4-1176] | 34 |  |
| O=C(CSc1ccccc1)Nc1ccc(O)c(C(=O)O)c1 [AD4-1178] | 34.6 |  |
| [125I]EGF (epidermal growth factor radioligand) |  | Bmax (receptor number) (fmol/mg tissue (wet weight)) [1]: 43; Kd [1]: 1.04 nM |
